Data on one molecule can be found in patent US20240425807A1, “MANUFACTURING METHOD OF MIXED POWDER, MIXED POWDER, POWDER, AND POWDER MEDIUM” (FUJIFILM Corporation, priority 2022, published 2024).

The nature of data set [1]: Overall evaluation based on solubility and liquid property. Type of data set: physicochemical. To be noted: combined from solubility and liquid property.
Data set [2] can be described thus: Liquid property (pH) of solution obtained in solubility evaluation. Type of data set: physicochemical. The settings on record: pH of the solution obtained in the solubility evaluation (tyrosine 0.44 g/L in distilled water). The protocol:
A pH of the solution obtained in the evaluation of solubility was evaluated. Liquid property was evaluated according to the following evaluation standard.

Each structure is given as a SMILES string.

As to `N[C@@H](Cc1ccc(O)cc1)C(=O)O` [Comparative Example 1, L-tyrosine], the Overall evaluation result in data set [1] is on record as “E (the solution was still turbid even after 1 hour, and/or the pH was other than neutral)”. Further, in data set [2], the Liquid property result was “Neutral (pH of 6.0 to 8.5)”.
